Here are results for one molecule from patent US12667584B2, “Adenosine analog and its use in regulating the circadian clock” (NATIONAL INSTITUTE OF BIOLOGICAL SCIENCES, BEIJING, priority 2017, dated 2026).

In one assay the test system is liver culture slice. Put plainly: Ex vivo liver slice culture from Per2::LUC mice, lumicycle. Format: cell-based, mouse. The note with it: 100 μM at Per2::LUC peak. The source says: Tissue culture, drug treatment and Real-Time Monitoring of Circadian Oscillations: 8 week-old male mPer2 Luciferase knockin mice were Sacrificed cervical dislocation. Then wipe the skin and neck with cotton containing 70% ethanol in a sterile hood. For SCN slice culture, firstly remove the eye balls from the head with scissors, decapitate and cut the skin. Then open the skull, remove all bone until the olfactory bulbs can be seen, cut the optic nerve between the olfactory bulbs and the hemispheres, and finally harvest the whole brain into ice cold HBSS. Trim the brain in HBSS by removing the cerebellum and olfactory bulbs. Attach the brain to a sample tray by glue with the rostral tip upwards and ventral surface closest to the cutting blade, then immediately fill the tray with ice cold HBSS and set the tray to the vibratome. Set the vibratome frequency at the maximum and the speed to the medium. To reach the SCN area quickly, the start cutting off thicker sections should be 500-800 μm. Reduce the sections thicker to 100 μm when the optic chiasm becomes wider. When the two SCN nuclei start to appear, collect the slice with transfer pipettes and check slices under dissecting microscope. […] Data was extract and analyzed with LumiCycle Analysis software. […]

The next assay concerns Per2::Luc. Put plainly: In-vivo imaging of luciferase signal in Per2::Luc knockin mice. Also on record: species or system mouse. As to the method:
Drug injection and in-vivo imaging analysis: mPer2Luciferase knockin mice were housed in Germ Free Animal Facility, under 12 h light/dark photoperiod, with food and water ad libitum. 8 week-old male mPer2Luciferase knockin mice were intraperitoneal injection with 15 mg/kg bw CA03 or DMSO. CA03 was firstly dissolved in DMSO to the concentration of 200 μg/μl, then dilute with saline to the final concentration of 1000 μg/ml for intraperitoneal injection. 1 h later, d-luciferin (Gold Bio.) was intraperitoneally injected. Relative luciferase activity were imaged on IVIS Lumina III system and analysed with in-vivo imaging software (PerkinElmer). […]
Next, the inventors sought to determine whether the clock effects of cordycepin can be recaptured in vivo. […] This observation is especially true when nascent RNA levels were measured, highlighting the first-order, inductive response in E-box genes as previously proposed(FIG. 2B).
To test whether cordycepin function in vivo, we firstly tested luciferase signal level by live imaging of Per2:LUC mice after intraperitoneal injection of 15 mg/kg cordycepin or DMSO. […] Prior evaluation the jet-leg cure ability of cordycepin, we detected whether cordycepin and it's prodrug pro-CA03 can penetrate BBB. We injected cordycepin or pro-CA03 via tail vein and time course sampled CSF and analyzed cordycepin pro-CA03 level with HPLC-MASS method. […]

In the next assay the test system is core clock genes. The assay can be described thus: qPCR of pre-mRNA of core clock genes in liver. The class given is in vivo, mouse. The note with it: 15 mg/kg, 1 h after treatment. How it is done: Total RNA Extraction and pre-mRNA Analysis: Total RNA from liver was extracted 1 h after treatment of either DMSO or 15 mg/kg bw with QIAGEN Rneasy Mini Kit (74104, Qiagen), then digested with RNase-Free DNase Set (79254, Qiagen) to remove DNA residual. 500 ng total was reverse transcripted into cDNA with PrimeScript™ RT Master Mix (Takara, RR036A). To compare pre-mRNA levels, equal amount of cDNA RNA from DMSO and CA03 treated samples were analyzed using SYBR Green Master Mix (Kapa Biosystems, KP-KK4601) on a BioRad CFX96 instrument. Each gene was analyzed with multiple primers across the whole gene, and the amplification products were either intronic or across an intron-exon junction. Only primers with good melt-curve were used. For quantification, gene expression in DMSO treated sample was used as control, the relative genes expression in CA03 treated sample calculated by the comparative Ct Method.
Next, the inventors sought to determine whether the clock effects of cordycepin can be recaptured in vivo. […] Mice were intraperitoneally (i.p.) injected with the cordycepin at ZT4 (ZT, zeitgeber time; ZT0 starts light-on, and ZT12 begins light-off). […] This observation is especially true when nascent RNA levels were measured, highlighting the first-order, inductive response in E-box genes as previously proposed(FIG. 2B). […]
For orientation: In qPCR the cycle at which signal appears reflects the starting amount.

A short description of assay [1]: Sleep phenotype by locomoter activity and electrophysiological recording. The note with it: in vivo. The source says: This is considered as a positive side-effect to adapt to jet-lag, which causes more problems on the sleep than arousal side. […] This work provide immediate and important practical applications, including use the disclosed compounds to assist humans who suffer jet-lag or shift-work can use this drug to adjust the clock-phase, and simultaneously tune the sleep-wake pattern, particularly coupled with caffeine ingestion.

As for `Nc1ncnc2c1ncn2[C@@H]1O[C@H](CO)C[C@H]1O` [Cordycepin, 3′-deoxy-adenosine], in the assay with liver culture slice, the “clock phase of liver slice versus DMSO” value was “totally antiphase”. Moreover, the “increase of luciferase signal in liver compared with DMSO control” value in the assay on Per2::Luc (15 mg/kg intraperitoneal) was “more than 4 folds”. The “time to induction of luciferase signal after drug administration” value in the assay with Per2::Luc (i.p. at ZT4) is listed as ≤ 1 h. In addition, in the assay on core clock genes, the “E-box gene transcription (pre-mRNA, liver)” value was “activate”; the “RRE gene and internal control gene transcription (pre-mRNA, liver)” value is recorded as “repress”. The sleep phenotype entry in assay [1] was “leads to a sleep phenotype”.
